Laboratory results from article PMC9822021, “Biological Activity of Amidino-Substituted Imidazo [4,5-b]pyridines” (Molecules, 2022).
Where two headings read alike, the source gives them in different places.

Key:
[1] = tested on: LN-229 glioblastoma cells; assay: In vitro antiproliferative activity, MTS proliferation assay; assay type: cell-based; settings: Homo sapiens, 72 h
Source text: (§1) Human cancer cell lines used in this manuscript, namely Capan-1, HCT-116, NCI-H460, LN-229, HL-60, K-562, Z-138, SW620, PC3 and HeLa, were acquired from the American Type Culture Collection (ATCC, Manassas, VA, USA), while the DND-41 cell line was purchased from the Deutsche Sammlung von Mikroorganismen und Zellkulturen (DSMZ Leibniz-Institut, Germany). Culture media were purchased from Gibco Life Technologies, USA, and supplemented with 10% fetal bovine serum (HyClone, GE Healthcare Life Sciences, Chicago, IL, USA), except for the media for SW620, PC3 and HeLa cells, which were purchased from Sigma.
(§2) Adherent cell lines LN-229, HCT-116, NCI-H460 and Capan-1 cells were seeded at a density between 500 and 1500 cells per well in 384-well tissue culture plates (Greiner). […]. Cells were incubated for 72 h with compounds and were then analyzed using the CellTiter 96® AQueous One Solution Cell Proliferation Assay (MTS) reagent (Promega) according to the manufacturer’s instructions. Absorbance of the samples was measured at 490 nm using a SpectraMax Plus 384 (Molecular Devices), and OD values were used to calculate the 50% inhibitory concentration (IC50). Compounds were tested in two independent experiments. SW620, PC3 and HeLa cells were seeded in 96-well microtiter plates at 1 × 10^4 to 3 × 10^4 cells/mL, depending on the doubling times of the specific cell line. Test agents were then added in five 10-fold dilutions (10^−8 to 10^−4 M). Working dilutions were freshly prepared on the day of testing. After 72 h of incubation, the cell growth rate was evaluated using the MTT assay as described previously. Absorbance of the samples was measured at 570 nm, and OD values were used to calculate the 50% inhibitory concentration (IC50). Each test was performed in quadruplicate in at least two individual experiments.

[2] = tested on: NCI-H460 lung carcinoma cells; assay: as above; assay type: cell-based; settings: Homo sapiens, 72 h
Source text: as §1, §2

[3] = tested on: HCT-116 colorectal carcinoma cells; assay: as above; assay type: cell-based; settings: Homo sapiens, 72 h
Source text: as §1, §2

[4] = tested on: K-562 chronic myeloid leukemia cells; assay: as above; assay type: cell-based; settings: Homo sapiens, K562, 72 h
Source text: as §1, §2

[5] = tested on: DND-41 acute lymphoblastic leukemia cells; assay: as above; assay type: cell-based; settings: Homo sapiens, DND41, 72 h
Method: (§3) Culture media were purchased from Gibco Life Technologies, USA, and supplemented with 10% fetal bovine serum (HyClone, GE Healthcare Life Sciences, Chicago, IL, USA), except for the media for SW620, PC3 and HeLa cells, which were purchased from Sigma.
(§4) Cells were incubated for 72 h with compounds and were then analyzed using the CellTiter 96® AQueous One Solution Cell Proliferation Assay (MTS) reagent (Promega) according to the manufacturer’s instructions. […] Compounds were tested in two independent experiments. SW620, PC3 and HeLa cells were seeded in 96-well microtiter plates at 1 × 10^4 to 3 × 10^4 cells/mL, depending on the doubling times of the specific cell line. Test agents were then added in five 10-fold dilutions (10^−8 to 10^−4 M). Working dilutions were freshly prepared on the day of testing. After 72 h of incubation, the cell growth rate was evaluated using the MTT assay as described previously. […] Each test was performed in quadruplicate in at least two individual experiments.

[6] = tested on: Capan-1 pancreatic adenocarcinoma cells; assay: as above; assay type: cell-based; settings: Homo sapiens, 72 h
Method: as §3, §4

[7] = tested on: HL-60 acute myeloid leukemia cells; assay: as above; assay type: cell-based; settings: Homo sapiens, 72 h
Method: as §3, §4

S. Pneumoniae ATCC 49619 = assay: Antibacterial activity in vitro, broth microdilution; assay type: cell-based; settings: Streptococcus pneumoniae, ATCC49619; broth microdilution (CLSI), 16–24 h at 37 °C
Method: (§5) Synthesized compounds were prepared as 10 mM DMSO solutions and tested in a final concentration range of 100–0.2 µM [34].
(§6) Broth microdilution testing was performed according to CLSI (Clinical Laboratory Standards Institute) guidelines. MIC (minimal inhibitory concentration) values were defined as the last tested concentration of the compound at which there was no visible growth of bacteria. Inoculums for each microorganism were prepared using the direct colony suspension method, where broth solutions that achieved turbidity equivalent to 0.5 McFarland standard were additionally diluted 100× with Ca-adjusted MH media (Becton Dickinson).

S. aureus ATCC 29213 = assay: as above; assay type: cell-based; settings: Staphylococcus aureus, ATCC29213; broth microdilution (CLSI), 16–24 h at 37 °C
Method: as §5, §6

E. coli ATCC 25922 = assay: as above; assay type: cell-based; settings: Escherichia coli, ATCC25922; broth microdilution (CLSI), 16–24 h at 37 °C
Method: as §5, §6

in vitro [8] = assay: in vitro
in vitro [9] = settings: dog
[10] = tested on: Z-138 non-Hodgkin lymphoma cells; assay: In vitro antiproliferative activity, MTS proliferation assay; assay type: cell-based, human; settings: Homo sapiens, Z-138, 72 h
Source text: as §1, §2

E. coli Efflux Del = assay: microbe, parasite or virus in culture; assay type: cell-based; settings: Escherichia coli, read-out: MIC E. coli Efflux Del
Method: as §5, §6

[11] = tested on: PC3 prostate carcinoma cells; assay: In vitro antiproliferative activity, MTT assay; assay type: cell-based; settings: Homo sapiens, 72 h
Source text: as §1, §2

[12] = tested on: SW620 colon carcinoma cells; assay: In vitro antiproliferative activity, MTT assay; assay type: cell-based; settings: Homo sapiens, SW-620, 72 h
Source text: as §1, §2

[13] = tested on: HeLa cervical carcinoma cells; assay: In vitro antiproliferative activity, MTT assay; assay type: cell-based; settings: Homo sapiens, 72 h
Source text: as §1, §2

YFV 17D = assay: microbe, parasite or virus in culture; assay type: cell-based; settings: Yellow fever virus, Huh-7, read-out: EC50 YFV 17D Huh7
Sindbis = assay: Antiviral CPE reduction assay; assay type: cell-based; settings: Sindbis virus, Huh-7, Huh7 cells
HSV-1 KOS = assay: Antiviral CPE reduction assay; assay type: cell-based, herpes simplex virus-1; settings: Human alphaherpesvirus 1
in vitro [14] = settings: human
HCoV NL63 = assay: Antiviral CPE reduction assay; assay type: cell-based; settings: Human coronavirus NL63, Huh-7, Huh7 cells
RSV A Long = assay: Antiviral CPE reduction assay; assay type: cell-based, respiratory syncytial virus A; settings: HEL 299 cells
[15] = tested on: Influenza B (B/Ned/537/05); assay: Antiviral CPE reduction assay; assay type: cell-based; settings: Influenza B virus, MDCK cells
Zika mr766 = assay: Antiviral CPE reduction assay; assay type: cell-based; settings: Zika virus, Huh-7, Huh7 cells
HCoV OC43 = assay: Antiviral CPE reduction assay; assay type: cell-based, human coronavirus OC43; settings: Betacoronavirus 1, OC43, HEL 299 cells
[16] = tested on: Influenza H3N2 (A/HK/7/87); assay: Antiviral CPE reduction assay; assay type: cell-based; settings: Influenza A virus, MDCK cells
HCoV 229E = assay: Antiviral CPE reduction assay; assay type: cell-based; settings: Human coronavirus 229E, HEL 299 cells
in vitro [17] = settings: human; remark: listed apart in the source
[18] = tested on: Influenza H1N1 (A/Ned/378/05); assay: Antiviral CPE reduction assay; assay type: cell-based; settings: Influenza A virus, MDCK cells

SMILES | IC50 [1] [µM] | IC50 [2] [µM] | IC50 [3] [µM] | IC50 [4] [µM] | IC50 [5] [µM] | IC50 [6] [µM] | IC50 [7] [µM] | MIC (S. Pneumoniae ATCC 49619) [µM] | MIC (S. aureus ATCC 29213) [µM] | MIC (E. coli ATCC 25922) [µM] | CC50 (in vitro [8]) [µM] | CC50 (in vitro [9]) [µM] | IC50 [10] [µM] | melting point [°C] | MIC (E. coli Efflux Del) [µM] | IC50 [11] [µM] | IC50 [12] [µM] | IC50 [13] [µM] | EC50 (YFV 17D) [µM] | EC50 (Sindbis) [µM] | further results
c1ccc(-c2nc3ncccc3[nH]2)cc1 [Compound 5, 2-Phenyl-1H-imidazo[4:5-b]pyridine] | > 100 | > 100 | > 100 | > 100 | > 100 | 98 ± 2.9 | 81.7 ± 26 | > 64 | > 64 | > 64 | > 30 | 79.2 ± 29.4 | > 100 | 290 to 291 | > 64 | > 100 | > 100 | 13.6 ± 3.4 |  |  | 
Cl.N=C(N)c1ccc(-c2nc3ncc(Br)cc3[nH]2)cc1 [Compound 10, 4-(6-Bromo-1H-imidazo[4,5-b]pyridin-2-yl)benzimidamide Hydrochloride] | > 100 | > 100 | > 100 | > 100 | > 100 | > 100 | > 100 | > 64 | > 64 | > 64 |  | > 100 | > 100 | > 300 | > 64 | ≥ 100 | 0.4 ± 0.1 | 1.3 ± 0.26 | > 100 | > 100 | EC50 (HSV-1 KOS): > 100 µM; CC50 (in vitro [14]): > 100 µM; EC50 (HCoV NL63): > 100 µM; EC50 (RSV A Long; human respiratory syncytial virus, CPE reduction): 86.9 ± 18.6 µM; EC50 [15]: 94 ± 5.2 µM; EC50 (Zika mr766): > 100 µM; EC50 (HCoV OC43): > 100 µM; EC50 [16]: 79.2 ± 14.7 µM; EC50 (HCoV 229E): > 100 µM; CC50 (in vitro [17]): > 100 µM; EC50 [18]: 71.4 ± 24.3 µM
Cl.c1cnc2nc(-c3ccc(C4=NCCN4)cc3)[nH]c2c1 [Compound 11, 2-(4-(4,5-Dihydro-1H-imidazol-2-yl)phenyl)-1H-imidazo[4,5-b]pyridine Hydrochloride] | 81.7 ± 17.4 | 84.9 ± 21.4 | > 100 | > 100 | 48.8 ± 12.5 | 74.5 ± 36.1 | > 100 | > 64 | > 64 | > 64 | > 30 | > 100 | 76.4 ± 33.4 | > 300 | > 64 | ≥ 100 | 12.1 ± 3.7 | 11.1 ± 3.5 |  |  | 
Brc1cnc2nc(-c3ccc(C4=NCCCN4)cc3)[nH]c2c1.Cl [Compound 15, 6-Bromo-2-(4-(1,4,5,6-tetrahydropyrimidin-2-yl)phenyl)-1H-imidazo[4,5-b]pyridine Hydrochloride] | 73.5 ± 0.8 | > 100 | > 100 | > 100 | 17 ± 1.3 | > 100 | > 100 | > 64 | > 64 | > 64 | > 30 | > 100 | 29.1 ± 16.5 | > 300 | > 64 | 8.6 ± 0.7 | 3.5 ± 0.2 | 7.3 ± 0.4 |  |  | 
Cn1c(-c2ccc(C#N)cc2)nc2cccnc21 [Compound 17, 4-(3-Methyl-3H-imidazo[4,5-b]pyridin-2-yl)benzonitrile] | > 100 | > 100 | > 100 | > 100 | > 100 | > 100 | > 100 | > 64 | > 64 | > 64 |  | > 100 | > 100 | 183 to 185 | > 64 | > 100 | > 100 | > 100 | > 100 | > 100 | EC50 (HSV-1 KOS): > 100 µM; CC50 (in vitro [14]): > 100 µM; EC50 (HCoV NL63): > 100 µM; EC50 (RSV A Long; CPE reduction): 79 ± 29.7 µM; EC50 (RSV A Long; human respiratory syncytial virus, HEL 299, CPE reduction): 58 µM; EC50 [15]: > 100 µM; EC50 (Zika mr766): > 100 µM; EC50 (HCoV OC43): > 100 µM; EC50 [16]: > 100 µM; EC50 (HCoV 229E): > 100 µM; CC50 (in vitro [17]): > 100 µM; EC50 [18]: > 100 µM
